Assay results reported in publication PMC3427316 (PLoS ONE, 2012).

Columns and labels:
[1] = system: NA with I223R mutation of H1N1pdm09 virus; assay type: biochemical, influenza A(H1N1)pdm09 virus
[2] = system: H1N1pdm09 virus resistant to oseltamivir; details: zanamivir inhaled (n = 8), intravenous (n = 5) or nebulised (n = 1); cited from earlier work

Structure (SMILES)	reduction in susceptibility associated with the I223R mutation [1] [fold]	patients with reduced viral shedding or recovery [2]
CCC(CC)O[C@@H]1C=C(C(=O)O)C[C@H](N)[C@H]1NC(C)=O [OC, oseltamivir carboxylate]	9 to 18	–
CC(=O)N[C@H]1[C@H]([C@H](O)[C@H](O)CO)OC(C(=O)O)=C[C@@H]1N=C(N)N [ZAN, zanamivir]	–	12/14
